In patent US4443468A, “Benzofuran derivatives, process for their preparation and their therapeutic applications” (Laboratoires Jacques Logeais, priority 1978, dated 1984):
Where a name gives a salt, the structure may show the parent alone. Read-outs that look alike come from different tables or passages of the source.

Legend:
Assay type in all cases: in vivo
Acute toxicity in mice = conditions: mouse, in vivo, single dose
Procedure: (§1) (a) Acute toxicity in mice
(§2) Each compound was administered orally, intra-peritoneally, or intravenously as a single dose.

[1] = system: maximum stimulation heart rate (FMS); experiment: Maximum stimulation heart rate (FMS) in rabbits
Procedure: (§3) The anti-dysrhythmic activity of the compounds of the formula (I) was evaluated according to the following pharmacological tests:
maximum stimulation heart rate (FMS)
The FMS, as determined in vivo in rabbits by cardiac stimulation by means of a stimulation probe placed in the left auricular cavity, provides an overall determination of the duration of the refractory period of the conductive routes and of the fibres of the myocardium.

[2] = system: aconitine induced dysrhythmias; experiment: Aconitine induced dysrhythmias in rats
Procedure: as §3
aconitine induced dysrhythmias in rats: this agent has a deeply perturbating effect on the ionic permeability of the membranes;

[3] = system: dysrhythmia on central stimulation; experiment: Dysrhythmia on central stimulation in rabbits
Procedure: The anti-dysrhythmic activity of the compounds of the formula (I) was evaluated according to the following pharmacological tests: […]

[4] = system: anoxia induced dysrhythmias; experiment: Anoxia induced dysrhythmias in rats, after pre-treatment with a subliminal dosage of aconitine
Procedure: as §3
anoxia induced dysrhythmias in rats, after pre-treatment with a subliminal dosage of aconitine (combination of the effects of a sympathetic stimulation with those due to perturbations of ionic conductions);

[5] = system: dysrhythmias induced by localized ischemia; experiment: Method according to Harris, in dogs (coronary ligation); conditions: 10 mg/kg i.v.
Procedure: as §3
method according to Harris, in dogs: coronary ligation and dysrhythmias induced by localized ischemia.

mice = experiment: Acute toxicity in mice; conditions: single dose, behavior observed
Procedure: as §1, §2

[6] = system: ouabaine induced dysrhythmias; experiment: Ouabaine induced dysrhythmias in guinea-pigs; conditions: 10-20 mg/kg i.v., guinea-pig
Procedure: as §3
ouabaine induced dysrhythmias in guinea-pigs: at toxic dosages, ouabaine affects transmembrane ionic exchanges; on the other hand, it induces a concomitant sympathetic activation.

[7] = intravenous, read-out: LD50, i.v.
[8] = ip, intra-peritoneal, read-out: LD50, i.p.

Row | Compound | LD50 (Acute toxicity in mice; [8]) [mg/kg] | LD50 (Acute toxicity in mice; oral, read-out: LD50, p.o.) [mg/kg] | Anoxia Rat ([4]; 10 mg/kg i.v.) | Remarks (acute toxicity) (mice) | further results
1 | NC1=NCC(c2cc3ccccc3o2)C1 (stereo not shown) [Example 1, 2-Amino-4-(2-benzofuryl)Δ-1-pyrroline hydrochloride] | 58 | 115 |  |  | LD50 (Acute toxicity in mice; [7]): 46 mg/kg
2 | CNC1=NCC(c2cc3ccccc3o2)C1 (stereo not shown) [Example 2, 2-Methylamino-4-(2-benzofuryl)Δ-1-pyrroline hydrochloride] | 58 | > 200 |  |  | FMS Rabbit ([1]; 7.5 mg/kg i.v.): +; Aconitine Rat ([2]; 10 mg/kg i.v.): +; Central stimulation Rabbit ([3]; 3 mg/kg i.v.): +
3 | CC(C)NC1=NCC(c2cc3ccccc3o2)C1 (stereo not shown) [Example 3, 2-Isopropylamino-4-(2-benzofuryl)Δ-1-pyrroline hydrochloride] | 58 | 200 | + |  | 
4 | CN(C)C1=NCC(c2cc3ccccc3o2)C1 (stereo not shown) [Example 4, 2-Dimethylamino-4-(2-benzofuryl)Δ-1-pyrroline hydrochloride] |  | 240 |  | convulsions | Harris Ligation Dog [5]: +; FMS Rabbit ([1]; 2.5 mg/kg i.v.): +; LD50 (Acute toxicity in mice; [7]): 38.5 mg/kg; Ouabaine Cobaye [6]: +; Central stimulation Rabbit ([3]; 5 mg/kg i.v.): ++; Anoxia Rat ([4]; 10-20 mg/kg i.v.): ++
5 | CCN(CC)C1=NCC(c2cc3ccccc3o2)C1 (stereo not shown) [Example 5, 2-Diethylamino-4-(2-benzofuryl)Δ-1-pyrroline fumarate] | 58 | 180 |  |  | 
6 | c1ccc(NC2=NCC(c3cc4ccccc4o3)C2)cc1 (stereo not shown) [Example 6, 2-Anilino-4-(2-benzofuryl)Δ-1-pyrroline hydrochloride] | 58 | 110 |  | Hyperesthesia | FMS Rabbit ([1]; 2.5 mg/kg i.v.): +; Central stimulation Rabbit ([3]; 2.5 mg/kg i.v.): +; Anoxia Rat ([4]; i.v., dose not given): 0
7 | c1ccc(CCNC2=NCC(c3cc4ccccc4o3)C2)cc1 (stereo not shown) [Example 7, 2-Phenethylamino-4-(2-benzofuryl)Δ-1-pyrroline hydrochloride] | 98 | > 200 |  | Convulsions | FMS Rabbit ([1]; 2 mg/kg i.v.): +; Aconitine Rat ([2]; 5 mg/kg i.v.): +; Central stimulation Rabbit ([3]; i.v., dose not given): 0
8 | c1ccc2oc(C3CN=C(N4CCCC4)C3)cc2c1 (stereo not shown) [Example 8, 2-Pyrrolidino-4-(2-benzofuryl)Δ-1-pyrroline hydrochloride] | 76 | 200 | + |  | Aconitine Rat ([2]; 10 mg/kg i.v.): +
9 | c1ccc2oc(C3CN=C(N4CCOCC4)C3)cc2c1 (stereo not shown) [Example 9, 2-Morpholino-4-(2-benzofuryl)Δ-1-pyrroline hydrochloride] | 142 | > 200 |  |  | Anoxia Rat ([4]; i.v., dose not given): 0
10 | CN1CCN(C2=NCC(c3cc4ccccc4o3)C2)CC1 (stereo not shown) [Example 10, 2-(4-Methyl-piperazino)-4-(2-benzofuryl)Δ-1-pyrroline methanesulfonate] | 142 | > 200 | + |  | 
